Where two headings read alike, the source gives them in different places.
Columns and labels:
IRAK4 = IRAK4 (Homo sapiens (Human), UniProt Q9NWZ3); experiment: IRAK4 Inhibition Assay; assay type: biochemical; settings: ATP 500 μM; IRAK4 0.6 nM; 60 min at room temperature
Experimental: The assays were performed in U-bottom 384-well plates. […] The reaction was initiated by the combination of IRAK4 with substrates and test compounds. The reaction was incubated at room temperature for 60 min. and terminated by adding 45 μL of 35 mM EDTA to each sample. The reaction mixture was analyzed on the Caliper LABCHIP® 3000 (Caliper, Hopkinton, Mass.) by electrophoretic separation of the fluorescent substrate and phosphorylated product.

[1] = system: TLR2 induced IL-6 in peripheral blood mononuclear cells (PBMCs); experiment: PBMC TLR2 Induced IL-6 Assay; assay type: cell-based, human; settings: human PBMCs, 10 μg/ml lipoteichoic acid for 5 hours, IL-6 by ELISA, value without asterisk, read-out: Cell IC50
How it was run: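 Human PBMCs (250000 cells/well) in RPMI with 10% heat-inactivated FCS pre-treated with compound for 30 min at 37° C, then stimulated 5 h with 10 μg/ml lipoteichoic acid. Supernatant IL-6 measured by ELISA and reported as IC50 or EC50.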

IRAK4, sequence (Q9NWZ3 whole entry, species assumed): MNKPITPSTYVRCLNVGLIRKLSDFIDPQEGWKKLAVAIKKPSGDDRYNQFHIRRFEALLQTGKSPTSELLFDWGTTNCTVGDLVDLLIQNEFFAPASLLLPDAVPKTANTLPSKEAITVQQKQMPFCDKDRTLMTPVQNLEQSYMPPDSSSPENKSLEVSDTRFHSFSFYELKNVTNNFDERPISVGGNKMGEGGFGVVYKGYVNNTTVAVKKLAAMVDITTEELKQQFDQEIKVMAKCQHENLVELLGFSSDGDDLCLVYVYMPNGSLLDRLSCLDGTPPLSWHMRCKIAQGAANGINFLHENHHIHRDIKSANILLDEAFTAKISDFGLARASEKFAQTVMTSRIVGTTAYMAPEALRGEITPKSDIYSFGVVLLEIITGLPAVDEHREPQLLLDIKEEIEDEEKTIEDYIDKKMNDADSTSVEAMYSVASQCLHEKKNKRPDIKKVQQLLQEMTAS

SMILES | IC50 (IRAK4) | IC50 [1] | IC50 ([1]; Homo sapiens, PBMC, 5 h)
CC(C)(O)[C@H](F)CNC(=O)c1cnc(Nc2ccn3nccc3c2)cc1NC1CCC(F)(F)C1 (some centres unmarked) [Example 299] | 1.7 nM | 420 nM | –
Cc1nn2ccc(Nc3cc(NCC(C)(C)F)c(C(=O)NC[C@@H](F)C(C)(C)O)cn3)cc2c1F [Example 300] | 4.4 nM | – | 294 nM
CC(C)(F)CNc1cc(Nc2ccn3ncc(F)c3c2)ncc1C(=O)NC[C@@H](F)C(C)(C)O [Example 301] | 3.1 nM | – | 190 nM
CCC(C)Nc1cc(Nc2ccn3nccc3c2)ncc1C(=O)NC[C@@H](F)C(C)(C)O (some centres unmarked) [Example 302] | 5.6 nM | – | 426 nM
CC(C)(O)[C@H](F)CNC(=O)c1cnc(Nc2ccc3ncsc3n2)cc1NC1CC1 [Example 308] | 0.5 nM | – | 144 nM
CC(C)Nc1cc(Nc2ccc3ncsc3n2)ncc1C(=O)NC[C@@H](F)C(C)(C)O [Example 309] | 1.9 nM | – | 61 nM
CC(C)(O)[C@H](F)CNC(=O)c1cnc(Nc2ccc3ncsc3n2)cc1NCC(F)(F)F [Example 310] | 1.9 nM | – | 173 nM
CCNc1cc(Nc2ccc3ncsc3n2)ncc1C(=O)NC[C@@H](F)C(C)(C)O [Example 311] | 2.4 nM | – | 81 nM
CC(C)(O)[C@H](F)CNC(=O)c1cnc(Nc2ccc3ncsc3n2)cc1NC1CCOCC1 [Example 312] | 1 nM | – | 29 nM
CC(C)Nc1cc(Nc2ccc3ncsc3n2)ncc1C(=O)NCC(F)(F)C(C)(C)O [Example 313] | 3.4 nM | – | 73 nM
CC(C)(F)CNc1cc(Nc2ccc3ncsc3n2)ncc1C(=O)NC[C@@H](F)C(C)(C)O [Example 314] | 2.7 nM | – | 115 nM
CC(C)(O)[C@H](F)CNC(=O)c1cnc(Nc2cc3scnc3cn2)cc1NC1CC1 [Example 315] | 3.9 nM | – | 426 nM
CC(C)(F)CNc1cc(Nc2cc3scnc3cn2)ncc1C(=O)NC[C@@H](F)C(C)(C)O [Example 316] | 4.7 nM | – | 429 nM
CCC(O)(CC)[C@H](F)CNC(=O)c1cnc(Nc2ccc3ncsc3c2)cc1NCC(C)(C)F [Example 317] | 1.7 nM | – | 374 nM
CC(C)Nc1cc(Nc2ccn3nccc3n2)ncc1C(=O)NC12CCC(N)(CC1)CC2 [Example 318, N-(4-aminobicyclo[2.2.2]octan-1-yl)-4-(isopropylamino)-6-(pyrazolo[1,5-a]pyrimidin-5-ylamino)nicotinamide] | 6.9 nM | – | 278 nM
CNC(=O)c1ccc(Nc2cc(Nc3ccc4ncsc4c3)ncc2C(=O)NC[C@@H](F)C(C)(C)O)cc1 [Example 319, (R)-6-(benzo[d]thiazol-6-ylamino)-N-(2-fluoro-3-hydroxy-3-methylbutyl)-4-(4-(methylcarbamoyl)phenylamino)nicotinamide] | 3 nM | – | 315 nM
CC(C)(O)[C@H](F)CNC(=O)c1cnc(Nc2ccc3ncsc3c2)cc1Nc1ccc(C(N)=O)cc1 [Example 320] | 2.4 nM | – | 270 nM
CC(C)(O)[C@H](F)CNC(=O)c1cnc(Nc2ccc3ncsc3c2)cc1Nc1ccc(C(=O)NC2CC2)cc1 [Example 321] | 6.4 nM | – | 1140 nM
CCNC(=O)c1ccc(Nc2cc(Nc3ccc4ncsc4c3)ncc2C(=O)NC[C@@H](F)C(C)(C)O)cc1 [Example 322] | 8.5 nM | – | 495 nM
CC(C)(O)[C@H](F)CNC(=O)c1cnc(Nc2ccc3ncsc3c2)cc1Nc1ccc(C(=O)NCC(F)(F)F)cc1 [Example 324] | 10.7 nM | – | 190 nM
CC(C)(O)[C@H](F)CNC(=O)c1cnc(Nc2ccc3ncsc3c2)cc1Nc1ccc(C(=O)NCCO)cc1 [Example 325] | 4.9 nM | – | 853 nM
CCCNC(=O)c1ccc(Nc2cc(Nc3ccc4ncsc4c3)ncc2C(=O)NC[C@@H](F)C(C)(C)O)cc1 [Example 326] | 12.9 nM | – | 437 nM
CC(C)(O)[C@H](F)CNC(=O)c1cnc(Nc2ccc3ncsc3c2)cc1N[C@H]1CCCC(O)C1 (stereo partly drawn) [Example 327, 6-(benzo[d]thiazol-6-ylamino)-N—((R)-2-fluoro-3-hydroxy-3-methylbutyl)-4-(3-hydroxycyclohexylamino)nicotinamide] | 9.7 nM | 1000 nM | –
CC(C)(O)[C@H](F)CNC(=O)c1cnc(Nc2ccc3ncsc3c2)cc1N[C@H]1CCCC(O)C1 (some centres unmarked) [Example 328] | 4.8 nM | 491 nM | –
CC(C)(O)C(F)CNC(=O)c1cnc(Nc2ccc3ncsc3c2)cc1N[C@H]1CCCC(F)C1 (some centres unmarked) [Example 329, 6-(benzo[d]thiazol-6-ylamino)-N-(2-fluoro-3-hydroxy-3-methylbutyl)-4-(3-fluorocyclohexylamino)nicotinamide] | 3.2 nM | – | 113 nM
CC(C)(O)[C@H](F)CNC(=O)c1cnc(Nc2ccc3ncncc3c2)cc1N[C@@H]1CCC[C@H]1O [Example 330] | 2.2 nM | – | 76 nM
CC(C)C(O)[C@H](F)CNC(=O)c1cnc(Nc2ccc3ncsc3c2)cc1N[C@@H]1CCC[C@H]1O (some centres unmarked) [Example 331] | 2.4 nM | 163 nM | –
CC(C)C(O)[C@H](F)CNC(=O)c1cnc(Nc2ccc3ncsc3c2)cc1N[C@@H]1CCC[C@H]1O (some centres unmarked) [Example 332] | 3.1 nM | 791 nM | –

— US9546153B2, “Bicyclic heterocycle substituted pyridyl compounds useful as kinase modulators” (BRISTOL-MYERS SQUIBB COMPANY, priority 2012, dated 2017)
